Data on one compound can be found in patent publication US20040029134A1, “P53-associated Parkin-like cytoplasmic protein, and related compositions and methods” (priority 2002, published 2004).

The test system of this test is Parc-overexpressing (Flag-Parc/U2OS) cells. Description: Subcellular p53 localization by immunofluorescent staining (anti-p53 1801). Type of test: cell-based, human. To be noted: etoposide 1 μM for 6 hours. The source says:
FIGS. 10A and 10B Parc over-expression abrogates stress-induced nuclear localization of endogenous p53 in U2OS cells. […] The etoposide-treated cells were immunostained with anti-p53 antibody (1801) (visualized by fluorescence) and counterstained with DAPI to visualize the nuclei. (B) Quantification of subcellular p53 localization in parental U2OS and in Parc-overexpressing (Flag-Parc/U2OS) cell lines after the cells were immunostained with the anti-p53 antibody (1801).
For the p53 cytoplasmic sequestration assay, cells were transfected with 30 ng/well CMV-p53 and 150 ng/well CMV-Parc. 24 hours post-transfection cells were fixed with 4% paraformaldehyde for 20 min. on ice, rehydrated for 5 min in serum-free DMEM and permeabilized with 0.2% Triton X100 (Fisher) for 10 min on ice. Cells were incubated in 1% bovine serum albumin (BSA) (Sigma)/Phosphate Buffered Salt solution (PBS) (Cellgro) for 30 min. Primary p53-specific monoclonal (for endogenous p53 immunostaining) (DO-1, 1801, Santa Cruz) or polyclonal (for transfected p53 immunostaining) (FL-393, Santa Cruz) antibodies or anti-Flag monoclonal antibody (for transfected Flag-Parc and Flag-Myc immunostaining) (Santa Cruz) were added in 1% BSA/PBS for 45 min at room temperature. […]

Consider `COc1cc([C@@H]2c3cc4c(cc3[C@@H](O[C@@H]3O[C@@H]5CO[C@@H](C)O[C@H]5[C@H](O)[C@H]3O)[C@H]3COC(=O)[C@H]23)OCO4)cc(OC)c1O` [etoposide], for which the “cells with nuclear p53 staining” value is “less than 30%”.
